Measurements as given in patent US20240058344A1, “METHODS OF TREATING NEURODEGENERATIVE DISORDERS AND STAT3-LINKED CANCERS USING SUPPRESSORS OF ELECTRON LEAK” (Cornell University, priority 2020, published 2024).

Legend:
[1] = Solubility in aqueous solutions; assay type: physicochemical
[2] = test system: GFAP; phospho-serine 202/205 tau; assay: Immunofluorescent staining of GFAP and phospho-serine 202/205 tau (AT8) in hTauP301S mice; assay type: in vivo; details: 6 weeks oral dosing
Source text: Immunofluorescent staining and quantification of astrocytic marker GFAP (red, FIG. 4A) and phospho-serine 202/205 tau (AT8, green, FIG. 4B) in male nontransgenic (NTG) and hTauP301S mice after 6 weeks of oral dosing with S3QEL2 or vehicle. (FIGS. 4C-4E) n=12-16 mice per group; *p<0.05, **p<0.01, ***p<0.001, ANOVA with Bonferroni's test.
(§1) As assessed by immunolabeling, hTauP301S mice treated with S3QEL2 also had reduced levels of glial fibrillary acidic protein (GFAP)-positive astrogliosis and phosphorylated tau (FIG. 7). Western blotting confirmed reduced levels of phosphorylated but not total tau in these mice (FIG. 5).

ASC/Pycard; CD11b = assay: Immunolabeling of ASC/Pycard and CD11b in hippocampal tissue of hTauP301S mice; assay type: in vivo; details: 6 weeks oral dosing
Source text: Levels of immunolabeling for the inflammasome protein ASC/Pycard (FIG. 6A) and the microglial marker CD11b (FIG. 6B) in hippocampal tissue from nontransgenic (NTG) and hTauP301S mice after 6 weeks of oral dosing with S3QEL2 or vehicle. n=3-6 mice per group. *p<0.05, **p<0.01, ***p<0.001, ANOVA with Dunnett's test.
as §1

[3] = test system: astrocytic-neuronal co-cultures; assay: Neuronal damage (NeuN) and neuronal firing (MEA) in astrocytic-neuronal co-cultures with AAV-TauP301S; assay type: cell-based, mouse; details: 1 μM
Protocol: (FIG. 10A) Co-cultures were immunostained for NeuN following transduction with AAV encoding human P301S mutant tau. Vehicle (Veh) or S3QEL2 (S3, 1μM) was added on day 8 in vitro and cells were analyzed on day 14. (FIG. 10B) Example traces recorded using multi-electrode array (MEA). Spikes (black) and network bursts (pink boxes). Top traces show population activities. (FIG. 10C) Average neuronal firing (% of baseline) in co-cultures. Mock treatment (control) or AAV-TauP301S with or without S3QEL2 (S3, 1μM) were added on day 6. n=4 wells per condition, *p<0.05, ANOVA with Bonferroni's test.
To begin dissecting the mechanisms by which S3QEL2 affects neural cell function and disease-linked processes, studies in primary cultures were conducted. Isolated mouse-derived neurons were transduced with adeno-associated viral vectors (AAVs) encoding wild-type or the P301S mutant form of the human tau protein (FIG. 8A). […] However, S3QEL reduced neuronal damage in the presence of astrocytes (approx. 30% astrocytes, FIG. 10A). Tau can also promote aberrant neuronal activity and hypersynchrony. S3QEL reduced aberrant neuronal firing in tau-transduced neurons co-cultured with astrocytes (FIGS. 10B-10C).

primary astrocytes [4] = assay: Markers of reactivity in primary astrocytes treated with oligomeric Aβ (qRT-PCR); assay type: cell-based, mice; details: oligomeric Aβ 3 μM, S3QEL2 20 μM, 24 h
Protocol: (FIGS. 11A-11B) Astrocytes isolated from P2-P3 mice were treated with oligomeric Aβ (3 μM) and S3QEL2 (S3, 20 μM) or vehicle (V) for 24 h and analyzed by qRT-PCR (FIG. 11A) or Western blotting (B) and normalized to vehicle controls. (FIG. 11B) Phospho-STAT3 levels were normalized to total STAT3 per sample. n=3 wells per condition; *p<0.05, **p<0.01, ***p<0.001, ANOVA with Dunnett's test.
To further assess if S3QELs alter glial functions, the effects of S3QEL2 on isolated astrocytes and microglia was tested. […] These markers included genes associated with neurodegeneration and aging, such as complement component C3, which promotes synapse elimination in disease, and phosphorylated STAT3, which is considered a central regulator of astrocytic reactivity.

A-172 glioblastoma cells = assay: Glioblastoma cell proliferation, CellTiter-Glo luciferase assay, A-172; assay type: cell-based, human; details: 0-50 μM, 72 and 96 h
Protocol: (§2) Relative cell density was measured using the CellTiter-Glo luciferase assay. n=3 wells per condition. *p<0.05, **p<0.01, ***p<0.001 vs. 0 μM, one-way ANOVA with Dunnett's multiple comparisons test.
(§3) The effect of S3QELs on proliferation of glial tumor cells that have different oncogenic mutations was assessed. In particular, proliferation rates were assessed in three different human immortalized glioblastoma cells lines (A-172, T98G, and U-87 MG). A-172 and U-87 lines have mutations in PTEN, a phosphatase that indirectly regulates PI3K activities, whereas T98G cell line has a mutation in p53, a well-known tumor suppressor gene. STAT3 can affect PI3K signaling and p53 transcription and could thereby promote glioblastoma cell proliferation. Whether S3QELs reduce glioblastoma cell proliferation and aberrant intracellular signaling was tested.
(§4) Briefly, two complementary methods were used to assess cell proliferation, including the CellTiter-Glo assay and DAPI staining of cell nuclei. The effects of S3QEL2 treatment on A-172, T98G, and U-87 MG cells were measured at different drug concentrations (0, 6, 20, 30, 40, or 50 μM) and time-points after treatment (72 or 96 hours). S3QEL2 inhibits proliferation of A-172 and T98G glioblastoma cells in a highly dose-dependent manner and these effects are similar at different time-points (FIG. 15A-B).

T98G glioblastoma cells = assay: Glioblastoma cell proliferation, CellTiter-Glo luciferase assay, T98G; assay type: cell-based, human; details: 0-50 μM, 72 and 96 h
Protocol: as §2, §3, §4

[5] = test system: U-87 MG glioblastoma cells; assay: Glioblastoma cell proliferation, CellTiter-Glo luciferase assay, U-87 MG; assay type: cell-based, human; details: 0-50 μM, 72 and 96 h
Protocol: as §2, §3, §4

primary astrocytes [6] = assay: Intracellular ATP levels in primary astrocytes; assay type: cell-based
Source text: Antimycin A and myxothiazol were used as positive controls to inhibit mitochondrial respiration and ATP production. n=3 wells per condition. ***p<0.001 vs. vehicle, mixed-effects model with Dunnett's multiple comparisons test.

astrocytes = assay: Oxygen consumption rates (mitochondrial respiration) in astrocytes; assay type: cell-based
Source text: Oxygen consumption rates (OCR) and maximal consumption rates are shown for indicated S3QEL2 concentrations and time points. Antimycin and rotenone were used as positive controls to inhibit mitochondrial respiration. ***p<0.001 vs. vehicle, two-way repeated measures ANOVA with Dunnett's multiple comparisons test.

Structure (SMILES): CCCN(CCC)c1ncnc2c1cnn2-c1ccc(C)c(C)c1 [S3QEL2]
- Solubility in aqueous solutions [1]: limited solubility in aqueous solutions
- GFAP-positive astrogliosis (immunolabeling) [2]: reduced
- Phosphorylated tau (AT8 immunolabeling) [2]: reduced
- ASC/Pycard protein immunolabeling (ASC/Pycard; CD11b): reduced
- CD11b protein immunolabeling (ASC/Pycard; CD11b): reduced
- Aberrant increases in neuronal firing (MEA) in astrocytic-neuronal co-cultures ([3]; added day 6): prevented
- Neuronal damage (NeuN) in astrocytic-neuronal co-cultures ([3]; added day 8, analyzed day 14): prevented neuronal damage
- Markers of reactivity (genes incl. complement component C3) (primary astrocytes [4]): reduced markers of reactivity
- Cell proliferation (relative cell density, CellTiter-Glo) (A-172 glioblastoma cells): dose-dependently inhibited cell proliferation
- Cell proliferation (relative cell density, CellTiter-Glo) (T98G glioblastoma cells): dose-dependently inhibited cell proliferation
- Cell proliferation (relative cell density, CellTiter-Glo) [5]: minimal effect
- Intracellular ATP levels (primary astrocytes [6]): do not affect intracellular ATP levels
- Mitochondrial respiration (oxygen consumption rates, OCR) (astrocytes): does not affect mitochondrial respiration
